In brackets after ≈: the same amount, converted by molar mass. Read-outs that look alike come from different tables or passages of the source.
Tested on: Burkholderia cenocepacia BC240 (cystic fibrosis isolate, MDR)
Test: MIC assay, BC240
Assay type: cell-based
Details: for MIC BC 240: B. cenocepacia MDR; for MIC: Burkholderia cenocepacia

Q: How did the “MIC BC 240” value (Table 5) turn out when `CN(C)[C@@H]1C(O)=C(C(N)=O)C(=O)[C@@]2(O)C(O)=C3C(=O)c4c(O)cccc4C[C@H]3C[C@@H]12` [Sancycline, sancycline] was run?
A: 4 µg/mL (≈ 9.65 µM)

Q: What about the “MIC BC 240” value (Table 7) of the same compound?
A: 4 µg/mL (≈ 9.65 µM)

Q: And the MIC?
A: 4 µg/mL (≈ 9.65 µM)

Q: And the MIC (read-out: MIC BC 240)?
A: 4 µg/mL (≈ 9.65 µM)

Q: Which results are given for `CN(C)c1cc(NC(=O)CNC(C)(C)C)c(O)c2c1C[C@H]1C[C@H]3[C@H](N(C)C)C(O)=C(C(N)=O)C(=O)[C@@]3(O)C(O)=C1C2=O` [Tigecycline, tigecycline]?
A: MIC BC 240 (Table 5): 16 µg/mL (≈ 27.3 µM); MIC BC 240 (Table 7): 16 µg/mL (≈ 27.3 µM); MIC: 16 µg/mL (≈ 27.3 µM); MIC (read-out: MIC BC 240): 16 µg/mL (≈ 27.3 µM)
